Reference: patent publication US20250332113A1, “ADHESIVE PARTICLES FOR ACTIVE DELIVERY” (THE TRUSTEES OF THE UNIVERSITY OF PENNSYLVANIA, priority 2022, published 2025)

Assay: Release profile of fluorescent molecules from PEG-PLGA double-emulsion hairy microparticles
Type: physicochemical
Details: 0.1 M PBS buffer pH 7.4, 37° C., fluorescence in supernatant
Excerpt: FIGS. 2A-2B. Simulated drug releasing profile from PEG-PLGA double emulsions-based hairy microparticles using two different fluorescent molecules. (FIG. 2A) Loaded Alexa Fluor® 647 (1025.2 g/mol) and (FIG. 2B) GFP (27 kDa) were released depending on the time and detected in supernatant.
To test drug encapsulating and releasing properties, we use two different sizes of fluorescent molecules (Alexa Fluor® 647, 1025.2 g/mol and GFP, 27 kDa). We load these molecules into most inner phase and generate double emulsions through two-step sequential emulsification. After fully drying of DCM, hairy microparticles are collected and washed 3 times by centrifugation at 3000 rcf for 1 min with deionized water. To determine the release profile, we place a sample in 0.1 M PBS buffer (pH=7.4, 5 ml total) at 37° C. and monitor the release of the fluorescent molecules. The fluorescent intensity in supernatant are measured using a BioTek plate reader. FIGS. 2A-2B show the release profile of both Alexa Fluor 647 and GFP. Based on the fluorescent intensity of end point, about 22-26% of Alexa Fluor 647 and 19-35% of GFP are released (compared to the amount injected into the emulsions) from microcapsules.

Substance: Alexa Fluor 647
- released from microcapsules, compared to the amount injected into the emulsions, based on fluorescent intensity of end point: 22-26%
